Assay results: US10494380B2, “Nitrogen-containing tricyclic derivatives having HIV replication inhibitory activity” (priority 2015, dated 2019)
Where two headings read alike, the source gives them in different places.

Assays:
[1] = system: T125A mutant virus (HIV-1 NL-432 recombinant molecular clone, IN gene); assay: HIV replication inhibition assay against integrase 124/125 mutant virus (Test Example 2); format: cell-based
Experimental: Persistently HIV (HTLV-IIIB strain) infected human T cell strain Molt-4 clone8 was cultured in RPMI-1640 medium supplemented with 10% fetal bovine serum and the supernatant was filtered, then the virus titer was measured and stored at −80° C. Polymorphic mutations in HIV-1-infected patients have been observed in amino acids 124 and 125 on the HIV-1 integrase (IN) gene. A point mutation was introduced on the amino acids 124 and/or 125 of IN gene of the HIV-1 NL-432 recombinant molecular clone to generate a mutant virus plasmid construct. These mutant virus plasmids were transfected into 293T cells, and after two days, the supernatant was filtered and then the virus titer was measured and stored at −80° C. Each anti-HIV active substance was diluted with culture medium described above to the designated concentration, which was dispensed into 96-well microtiter plate by 50 μL. Next, 100 μL of MT-4 cell suspension (2.5×10^4 cells) was dispensed into each well, then 50 μl of HIV-containing supernatant diluted with culture medium described above was added thereto (60 pfu (plaque forming unit)).
Cells were cultured at 37° C. in CO2 incubator for four days, then 30 μL of MTT (3-(4,5-dimethylthiazole-2-yl)-2,5-diphenyltetrazolyum bromide) reagent (5 mg/mL in PBS) was added to all wells followed by incubation for 1 hour. In this step, MTT was reduced to insoluble formazan in living cells. To elute generated formazan, 150 μL of the culture supernatant was removed from all wells, then 150 μL of cell lysis solution (10% Triton X-100 and 0.4% (v/v)-HCl containing isopropanol) was added thereto, followed by shaking with a plate mixer. The formazan was measured with micro plate reader at OD: 560 nm and 690 nm (reference wavelength) and the result was compared with the reference wells. EC50 means the compound concentration at which 50% of cytotoxicity caused by virus infection is inhibited.

HIV = format: cell-based; conditions: EC50 in the presence of human serum (25%) versus without human serum, MT-4 cells
Experimental: To confirm the influence of human serum on anti-HIV activity as necessary, human serum was added and determined EC50 in this condition. Human serum (100 μL/well) was dispensed into each anti-HIV active substance at a designated concentration dispensed 50 μL each in advance into a 96-well microtiter plate, and the plate was incubate at room temperature for 1 hour. To the serum-free plate, only culture medium (100 μL/well) was dispensed into 96-well microtiter plate. MT-4 cells (3×10^4 cells/well) was infected with 3 μL/well of HIV solution diluted to an appropriate concentration (600 pfu/50 μL) by the required number of wells and incubated at 37° C. for 1 hour. The infected cells were centrifuged at 1200 rpm for 5 minutes, the supernatant was discarded, and the infected cells were dispersed into culture medium for the required number of wells at 50 μL/well. Infected cell suspension was dispensed into a 96-well microtiter plate of which anti-HIV active substance and human serum prepared in advance. The cell mixture was mixed with a plate mixer and cultured in a CO2 incubator for 4 days. The EC50 in the presence of human serum was calculated in the same manner as in Test Example 1 and the ratio of EC50 in the presence of human serum and EC50 in the absence of human serum was calculated as the potency shift value. […]

[2] = Human immunodeficiency virus 1, MT4, read-out: EC50 against T125A mutant virus, T125A mutant virus (HIV-1 NL-432 IN gene), MT-4 cells, MTT
[3] = T125A mutant virus (HIV-1 NL-432 IN gene), MT-4 cells, MTT, read-out: EC50 against T125A mutant virus

Row | SMILES | EC50 [1, 2] | Potency shift value (HIV) | EC50 [1, 3] | EC50 ([1]; read-out: EC50 against T125A mutant virus, T125A mutant virus (HIV-1 NL-432 IN gene), MT-4 cells, MTT)
1 | Cc1ccc(-c2c([C@H](OC(C)(C)C)C(=O)O)c(C)c3c4c2cc(C)n4CCN3c2ccc(N3CCCC3=O)cn2)cc1 [Compound I-288] | 5.3 nM | 11 |  | 
2 | Cc1ccc(-c2c([C@H](OC(C)(C)C)C(=O)O)c(C)c3c4c2cc(C)n4CCN3c2ncc(CN3CCOCC3)cn2)cc1 [Compound I-348] | 5 nM | 21 |  | 
3 | COc1cncc(N2CCn3c(C)cc4c(-c5ccc(C)cc5)c([C@H](OC(C)(C)C)C(=O)O)c(C)c2c43)n1 [Compound I-274] | 14 nM | 16 |  | 
4 | Cc1ccc(-c2c([C@H](OC(C)(C)C)C(=O)O)c(C)c3c4c2cc(C)n4CCN3c2ncc(OCCCO)cn2)cc1 [Compound I-284] | 3.6 nM | 17 |  | 
5 | Cc1ccc(-c2c([C@H](OC(C)(C)C)C(=O)O)c(C)c3c4c2cc(C)n4CCN3CCOCC(F)F)cc1 [Compound I-206] |  | 9.7 | 71 nM | 
6 | Cc1c([C@H](OC(C)(C)C)C(=O)O)c(-c2ccc(Cl)cc2)c2cc(C)n3c2c1N(c1ncc(CN(C)C)cn1)CC3 [Compound I-313] | 8.8 nM | 7.7 |  | 
7 | COc1cnc(N2c3c(C)c([C@H](OC(C)(C)C)C(=O)O)c(-c4ccc(C)cc4)c4cc(C)n(c34)C[C@H]2C)nc1 [Compound I-241] | 2.2 nM | 8.4 |  | 
8 | Cc1ccc(-c2c([C@H](OC(C)(C)C)C(=O)O)c(C)c3c4c2cc(C)n4CCN3CC(F)F)cc1 [Compound I-281] | 17 nM | 23 |  | 
9 | Cc1c([C@H](OC(C)(C)C)C(=O)O)c(-c2ccc(Cl)cc2)c2cc(C)n3c2c1N(c1ncc(OCC2(F)COC2)cn1)CC3 [Compound I-259] | 4.4 nM | 15 |  | 
10 | CCOCc1cnc(N2CCn3c(C)cc4c(-c5ccc(Cl)cc5)c([C@H](OC(C)(C)C)C(=O)O)c(C)c2c43)nc1 [Compound I-314] | 5.3 nM | 41 |  | 
11 | Cc1ccc(-c2c([C@H](OC(C)(C)C)C(=O)O)c(C)c3c4c2cc(C)n4CCN3c2ncc(Oc3ccc4ccccc4n3)cn2)cc1 [Compound I-338] | 21 nM | 18 |  | 
12 | COCc1cnc(N2CCn3c(C)cc4c(-c5ccc(Cl)cc5)c([C@H](OC(C)(C)C)C(=O)O)c(C)c2c43)nc1 [Compound I-312] | 4.6 nM | 37 |  | 
13 | Cc1ccc(-c2c([C@H](OC(C)(C)C)C(=O)O)c(C)c3c4c2cc(C)n4CCN3c2cccc(CN3CCOCC3)n2)cc1 [Compound I-217] |  | 9.1 | 39 nM | 
14 | Cc1c([C@H](OC(C)(C)C)C(=O)O)c(-c2ccc(Cl)cc2)c2cc(C)n3c2c1N(c1nc2ccccc2s1)CC3 [Compound I-240] | 51 nM | 12 |  | 
15 | Cc1c([C@H](OC(C)(C)C)C(=O)O)c(-c2ccc(Cl)cc2)c2cc(C)n3c2c1N(C)CC3c1ccccc1 (some centres unmarked) [Compound I-332] |  | 25 |  | 13 nM
16 | Cc1c([C@H](OC(C)(C)C)C(=O)O)c(-c2ccc(Cl)cc2)c2cc(C)n3c2c1N(c1ncc(OCOCC[Si](C)(C)C)cn1)CC3 [Compound I-233] |  | 12 |  | 
17 | Cc1ccc(-c2c([C@H](OC(C)(C)C)C(=O)O)c(C)c3c4c2cc(C)n4CCN3CCOC(F)F)cc1 [Compound I-208] |  | 11 | 24 nM | 
18 | Cc1ccc(-c2c([C@H](OC(C)(C)C)C(=O)O)c(C)c3c4c2cc(C)n4CCN3c2ncc(OCCO)cn2)cc1 [Compound I-283] | 12 nM | 9.5 |  | 
19 | Cc1c([C@H](OC(C)(C)C)C(=O)O)c(-c2ccc(Cl)cc2)c2cc(C)n3c2c1N(C(=O)C(=O)N(C)C)[C@@H](C)C3 [Compound I-168] |  | 2.9 |  | 
20 | COc1cccc(N2CCn3c(C)cc4c(-c5ccc(Cl)cc5)c([C@H](OC(C)(C)C)C(=O)O)c(C)c2c43)n1 [Compound I-194] | 12 nM | 13 |  | 
21 | Cc1c([C@H](OC(C)(C)C)C(=O)O)c(-c2ccc(Cl)cc2)c2cc(C)n3c2c1N(Cc1cnccn1)CC3 [Compound I-152] | 11 nM | 6.9 |  | 
22 | CCCCCO[C@H](C(=O)O)c1c(C)c2c3c(cc(C)n3CCN2c2ncc(OC)cn2)c1-c1ccc(Cl)cc1 [Compound I-326] |  | 5.8 |  | 

Row | SMILES | EC50 [1, 2] | Potency shift value (HIV) | EC50 [1, 3] | EC50 ([1]; read-out: EC50 against T125A mutant virus, T125A mutant virus (HIV-1 NL-432 IN gene), MT-4 cells, MTT)
23 | Cc1c([C@H](OC(C)(C)C)C(=O)O)c(-c2ccc(Cl)cc2)c2cc(C)n3c2c1N(C)C(c1ccccc1)C3 (some centres unmarked) [Compound I-333] |  | 6.4 |  | 
24 | Cc1ccc(-c2c([C@H](OC(C)(C)C)C(=O)O)c(C)c3c4c2cc(C)n4CCN3c2cccc(C(F)(F)F)n2)cc1 [Compound I-285] |  | 5.1 |  | 
25 | Cc1c([C@H](OC(C)(C)C)C(=O)O)c(-c2ccc(F)cc2)c2cc(C)n3c2c1N(CC(=O)N(C)C)CC3 [Compound I-161] |  | 1.9 |  | 
26 | COc1cnc(N2CCn3c(C)cc4c(-c5ccc(Cl)cc5)c([C@H](OCC5CC5)C(=O)O)c(C)c2c43)nc1 [Compound I-298] |  | 11 |  | 
27 | COc1cnc(N2CCn3c(C)cc4c(-c5ccc(Cl)cc5)c([C@H](OCCO)C(=O)O)c(C)c2c43)nc1 [Compound I-317] |  | 1.3 |  | 
28 | Cc1c([C@H](OC(C)(C)C)C(=O)O)c(-c2ccc(Cl)cc2)c2cc(C)n3c2c1N(C)C1CNCC13 (some centres unmarked) [Compound I-237] |  | 2.4 |  | 
29 | CCCO[C@H](C(=O)O)c1c(C)c2c3c(cc(C)n3CCN2c2ncc(OC)cn2)c1-c1ccc(Cl)cc1 [Compound I-297] |  | 7.6 |  | 
30 | CCCCO[C@H](C(=O)O)c1c(C)c2c3c(cc(C)n3CCN2c2ncc(OC)cn2)c1-c1ccc(Cl)cc1 [Compound I-325] |  | 5.4 |  | 
31 | CCO[C@H](C(=O)O)c1c(C)c2c3c(cc(C)n3CCN2c2ncc(OC)cn2)c1-c1ccc(Cl)cc1 [Compound I-296] |  | 2.1 |  | 
32 | Cc1c([C@H](OC(C)(C)C)C(=O)O)c(-c2ccc(Cl)cc2)c2cc(C)n3c2c1N(C(=O)C1CC1)[C@@H](C)C3 [Compound I-070] | 43 nM |  |  | 
33 | Cc1ccc(-c2c([C@H](OC(C)(C)C)C(=O)O)c(C)c3c4c2cc(C)n4CCN3c2ncc(OCCNS(C)(=O)=O)cn2)cc1 [Compound I-222] |  |  | 89 nM | 
34 | Cc1csc(N2CCn3c(C)cc4c(-c5ccc(Cl)cc5)c([C@H](OC(C)(C)C)C(=O)O)c(C)c2c43)n1 [Compound I-147] | 16 nM |  |  | 
35 | Cc1c([C@H](OC(C)(C)C)C(=O)O)c(-c2ccc(Cl)cc2)c2cc(C)n3c2c1N(C)[C@@H](C)C3 [Compound I-053] | 5.6 nM |  |  | 
36 | Cc1c([C@H](OC(C)(C)C)C(=O)O)c(-c2ccc(Cl)cc2)c2cc(C)n3c2c1N(CC(F)F)CC3 [Compound I-035] | 14 nM |  |  | 
37 | COC[C@@H]1Cn2c(C)cc3c(-c4ccc(Cl)cc4)c([C@H](OC(C)(C)C)C(=O)O)c(C)c(c32)N1S(C)(=O)=O [Compound I-087] | 20 nM |  |  | 
38 | CC(=O)Nc1cnc(N2CCn3c(C)cc4c(-c5ccc(C)cc5)c([C@H](OC(C)(C)C)C(=O)O)c(C)c2c43)nc1 [Compound I-202] |  |  | 56 nM | 
39 | Cc1coc(N2CCn3c(C)cc4c(-c5ccc(Cl)cc5)c([C@H](OC(C)(C)C)C(=O)O)c(C)c2c43)n1 [Compound I-150] | 15 nM |  |  | 
40 | CCC(=O)N1c2c(C)c([C@H](OC(C)(C)C)C(=O)O)c(-c3ccc(Cl)cc3)c3cc(C)n(c23)C[C@@H]1C [Compound I-069] | 16 nM |  |  | 
41 | Cc1c([C@H](OC(C)(C)C)C(=O)O)c(-c2ccc(F)cc2)c2cc(C)n3c2c1N(C)[C@H](C)C3 [Compound I-092] | 7.6 nM |  |  | 
42 | Cc1c(-c2c([C@H](OC(C)(C)C)C(=O)O)c(C)c3c4c2cc(C)n4CCN3C)ccc2c1NCCO2 [Compound I-160] | 70 nM |  |  | 
43 | Cc1c([C@H](OC(C)(C)C)C(=O)O)c(-c2ccc(C(F)(F)F)cc2)c2cc(C)n3c2c1N(C)CC3 [Compound I-050] | 49 nM |  |  | 
